Assay results as given in PMC11604048, “Constrained TACC3 peptidomimetics for a non-canonical protein–protein interface elucidate allosteric communication in Aurora-A kinase” (Chemical Science, 2024).
Blank lines part the entries; values can stand above or below the molecule they belong to. *1 amine or outer side, *2 acyl side, *3 side chain or, on linkers, in order; H or OH if unused. Where a SMILES comes first, the peptide text is derived from it. Bridges are numbered along the chain shown (N, C = ends). Where no end group is shown, it is not given here. [ ]: non-standard residue; d: D form. The star is where a group is joined. 5FAM = O=C1OC2(c3ccc(O)cc3Oc3cc(O)ccc32)c2ccc(C(=O)*)cc21; Biphenyl(4,4'-CH2)2 = c1cc(-c2ccc(C[*:2])cc2)ccc1C[*:1]; Pro(trans-4-F) = O=C(O)[C@@H]1C[C@@H](F)CN1; Phe(4-Br) = N[C@@H](Cc1ccc(Br)cc1)C(=O)O; Phe(4-Cl) = N[C@@H](Cc1ccc(Cl)cc1)C(=O)O; Phe(4-I) = N[C@@H](Cc1ccc(I)cc1)C(=O)O; Nle = CCCC[C@H](N)C(=O)O; Ahx = NCCCCCC(=O)O

Assays:
[1] = molecular target: T1, Aurora-A122-403-C290A/C393A (Homo sapiens, UniProt O14965, C290A/C393A); assay: FA direct binding assay (Aurora-A titrated into FAM-Ahx-labelled peptide); parameters: ΔG: unit not given here; conditions: 50 nM fluorescein-labelled peptide
T1 construct: Human Aurora-A kinase domain 122-403 wild-type or C290A/ C393A mutant; His tag (pET30TEV vector) (N, cleaved yes); made in house; host or cells: E. coli RIL, co-expressed with lambda phosphatase (Aurora-A); tracer by solid phase synthesis
T1 sequence (O14965 122-403 C290A/C393A): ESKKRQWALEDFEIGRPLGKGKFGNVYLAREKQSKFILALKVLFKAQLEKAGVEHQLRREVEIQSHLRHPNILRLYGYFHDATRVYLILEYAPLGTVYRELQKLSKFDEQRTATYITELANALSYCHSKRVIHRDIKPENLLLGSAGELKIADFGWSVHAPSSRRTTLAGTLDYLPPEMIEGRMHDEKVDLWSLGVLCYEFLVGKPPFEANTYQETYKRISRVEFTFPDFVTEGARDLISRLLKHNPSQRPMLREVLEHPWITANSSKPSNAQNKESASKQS
Experimental: Fluorescence anisotropy (FA) assays – General information.
All assays were performed using 384-well plates(Greiner Bio-one, UK). […]
produced as described previously.11 All samples were prepared in 25 mM Tris,150 mM NaCl, 5 mM MgCl2, […]
(PerkinElmer; Waltham, MA, USA).The parameters were set as follows: Excitation wavelength = 480 nm […]
Measured data were processed and analysed as previously described.12 Specifically, the perpendicular intensity (P) and parallel intensity (S) were subtracted by the control values and used for calculations of intensity and anisotropy using the following Equations 1, 2, 3, 4, and 5:
I= (2PG) + S Eq. (SI − 5)
r = (S − PG) Eq. (SI − 6)
L = r − r௠௜௡ Eq. (SI − 7)
y = (k + x + [FL]) − ඥ(k + x + [FL]2 − 4 ∗ x ∗ [FL]) Eq. (SI − 8)
y = r + r௠௜௡ − r௠௔௫ Eq. (SI − 9)
Where I = total intensity; P = perpendicular intensity; S = parallel intensity; G = instrument factor; r = anisotropy; Lb = ligand bound fraction; λ = change in intensity between bound and unbound states which […]
FA direct binding assays. […]
starting from 700 μM, diluted over 24 points in a 1/2 regime using the FAM-Ahx-labeled peptides at a final fixed concentration of 50 nM per well.

[2] = molecular target: T1, Aurora-A122-403-C290A/C393A; assay: Variable-temperature fluorescence anisotropy (VT-FA) Van't Hoff analysis; format: binding
Experimental: Variable-temperature fluorescence anisotropy (VT-FA) Van't Hoff analysis. Variable temperature-fluorescent anisotropy assays were performed in 384-well plates (Greiner Bio-one) with Aurora-A 122-403-290A/C393A protein dialyzed into different assay buffers before use. In this experiment, we prepared five […]
Buffer 1 – 25 mM HEPES, 150 mM NaCl, 5 mM MgCl2, pH= 7.5, Buffer 2 – 25 mM Tris, 150 mM NaCl, 5 mM MgCl2, pH= 7.5, Buffer 3 – 25 mM HEPES, 5 mM MgCl2, pH= 7.5, Buffer 4– 25 mM HEPES, 150 mM NaCl, 5 mM MgCl2, pH= 6.0, Buffer 5– 25 mM HEPES, 150 mM NaCl, 5 mM MgCl2, pH= 8.0, The protein concentration in the first well started at 237 μM in the corresponding buffer, and was diluted over 16 points in a 1/2 dilution regime. The concentration of the labeled peptide was fixed at 50 nM per well. After incubation of the plate at room temperature for 1 h, the plates were read at increasing intervals of 2.5°C, following a minimum period of 5 min equilibration at each temperature. The data was processed as previously described and the ln Ka at each temperature plotted against 1/T (K). The ΔG°, ΔH° and -T*ΔS° were calculated according to Van’t Hoff’s equation (6): […]
(§1) r = r଴ + A x e భ Eq. (SI - 10)
τ = tଵ ln(2) Eq. (SI - 11) […]
Western blots were performed using an anti-Phospho-Thr288

[3] = molecular target: T1, Aurora-A122-403-C290A/C393A; assay: Competition FA assay against FAM-Ahx-TACC3 522-536 tracer; format: binding; conditions: SD; read-out: IC50
[4] = molecular target: T1, Aurora-A122-403-C290A/C393A; assay: Isothermal titration calorimetry (ITC); format: binding; conditions: ITC as E13
Experimental: Isothermal titration calorimetry (ITC). ITC experiments were carried out using a MicroCal PEAQ-ITC system (Malvern Panalytical) at 25 °C. A stock solution of Aurora-A 122-403-290A/C393A was dialyzed into ITC buffer overnight (25 mM Tris buffer, pH= 7.5; 150 mM NaCl; 5 mM MgCl2; 5 % v/v glycerol), and the same buffer was employed to resuspend a solid portion of the testing peptides. For each experiment, initially, the cell was filled with 275 µl of Aurora-A122-403-290A/C393A (46 μM) and the syringe was loaded with the corresponding peptide at 1.25 mM concentration. An initial injection of 0.5 μL was then followed by 13 injections of 3 μL, every 150 s, with a constant syringe rotation speed of 750 rpm throughout. The signal for the enthalpy of dilution of each peptide into buffer was independently measured in a control titration experiment and then subtracted from the experimental binding traces. The Kd, ΔG°, ΔH° and -TΔS° values were determined via the MicroCal PEAQ-ITC analysis software (Malvern Paranalytical) using a single-site binding model. […]

[5] = Peptide enzymatic degradation assay, α-chymotrypsin; format: in vitro ADME, bovine; conditions: isolated enzyme chymotrypsin; α-chymotrypsin (bovine pancreas), peptide 100 µM, peptide/enzyme molar ratio [P]/[E]= 25, HEPES 25 mM, pH 7.5, 25 °C, 6 hours; RP-HPLC peak area, exponential decay fit; three independent experiments, mean ± SD; SD; read-out: t1/2 in the presence of α-chymotrypsin
Experimental: into individual aliquots at -20 °C. […]
a concentration of 1 mg mL−1 concentration. The digestion samples were immediately prepared by mixing […]
were then incubated at 25 °C for 6 hours. […]
thermo-shaker for 6 hours. […]
presence of enzyme (t=0). […]
as §1
τ = tଵ ln(2) Eq. (SI - 11)
In all cases, control samples were […]
replicates and error bars indicating the corresponding SD. […]

Aurora-A 122-403 = molecular target: T2, Aurora-A 122-403 (Homo sapiens, UniProt O14965); assay: fluorescence anisotropy competition
T2 chain: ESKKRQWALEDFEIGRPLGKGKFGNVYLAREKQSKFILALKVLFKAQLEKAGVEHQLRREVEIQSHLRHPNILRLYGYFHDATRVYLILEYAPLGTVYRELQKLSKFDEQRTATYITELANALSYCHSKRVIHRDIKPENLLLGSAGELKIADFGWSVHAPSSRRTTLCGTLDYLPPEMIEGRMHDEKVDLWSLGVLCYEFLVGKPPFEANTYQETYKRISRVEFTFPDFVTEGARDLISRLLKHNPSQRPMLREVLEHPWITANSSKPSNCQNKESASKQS

[6] = as E43, Buffer 1 – 25 mM HEPES, 150 mM NaCl, 5 mM MgCl2, pH= 7.5
[7] = as E43, Buffer 2 – 25 mM Tris, 150 mM NaCl, 5 mM MgCl2, pH= 7.5
[8] = as E43, Buffer 3 – 25 mM HEPES, 5 mM MgCl2, pH= 7.5
[9] = as E43, Buffer 4 – 25 mM HEPES, 150 mM NaCl, 5 mM MgCl2, pH= 6.0
[10] = as E43, Buffer 5 – 25 mM HEPES, 150 mM NaCl, 5 mM MgCl2, pH= 8.0

Molecule: CC(C)C[C@H](NC(=O)[C@@H](NC(=O)[C@H](CCC(=O)O)NC(=O)[C@H](C)NC(=O)[C@@H]1C[C@@H](F)CN1C(=O)[C@H](CC(=O)O)NC(=O)[C@@H]1CSCc2ccc(cc2)-c2ccc(cc2)CSC[C@H](NC(=O)[C@H](CCC(=O)O)NC(=O)[C@H](CC(C)C)NC(=O)CCCCCNC(=O)c2ccc3c(c2)C(=O)OC32c3ccc(O)cc3Oc3cc(O)ccc32)C(=O)N[C@@H](CCCCN)C(=O)N[C@@H](CCC(=O)O)C(=O)N[C@@H](CCC(=O)O)C(=O)N[C@@H](CO)C(=O)N[C@@H](Cc2ccc(I)cc2)C(=O)N1)C(C)C)C(N)=O [FAM-Ahx-TACC3 518-532-L/R-Bph-IF/fP] ({5FAM-Ahx}-LECKEES[Phe(4-I)]CD[Pro(trans-4-F)]AEVL-NH2; linker 3-9 via Biphenyl(4,4'-CH2)2)
Kd ([1]; Table S6, direct FA titration, Tris buffer pH 7.5, mean ± SD, n = 6, read-out: Kd): 1.42 ± 0.24 µM | ΔG ([1]; Table S6, from direct FA titration, mean ± SD, n = 6): -33.4 ± 0.5 | ΔΔGConstrained-WT ([2]; VT-FA Van't Hoff, 50 nM FAM-Ahx tracers, 25-35 °C, constrained minus linear FAM-Ahx-TACC3 518-532, Buffer 1 – 25 mM HEPES, 150 mM NaCl, 5 mM MgCl2, pH= 7.5, triplicate): -4.50 ± 3.6 kJ mol -1 | ΔTΔSConstrained-WT [2, 6]: -17.91 ± 2.4 kJ mol -1 | ΔΔHConstrained-WT [2, 6]: 14.18 ± 2.5 kJ mol -1 | ΔTΔSConstrained-WT [2, 7]: -17.85 ± 1.6 kJ mol -1 | ΔΔGConstrained-WT [2, 7]: -3.17 ± 2.0 kJ mol -1 | ΔΔHConstrained-WT [2, 7]: 14.67 ± 0.4 kJ mol -1 | ΔTΔSConstrained-WT [2, 8]: -22.94 ± 2.9 kJ mol -1 | ΔΔGConstrained-WT [2, 8]: -6.82 ± 5.9 kJ mol -1 | ΔΔHConstrained-WT [2, 8]: 16.12 ± 3.0 kJ mol -1 | ΔTΔSConstrained-WT [2, 9]: -11.33 ± 2.0 kJ mol -1 | ΔΔGConstrained-WT [2, 9]: -4.06 ± 4.1 kJ mol -1 | ΔΔHConstrained-WT [2, 9]: 7.27 ± 2.1 kJ mol -1 | ΔTΔSConstrained-WT [2, 10]: -13.22 ± 0.9 kJ mol -1 | ΔΔGConstrained-WT [2, 10]: -3.02 ± 1.8 kJ mol -1 | ΔΔHConstrained-WT [2, 10]: 10.19 ± 0.9 kJ mol -1

Molecule: CC(=O)N[C@@H](CC(C)C)C(=O)N[C@@H](CCC(=O)O)C(=O)N[C@@H](CC(C)C)C(=O)N[C@@H](CCCCN)C(=O)N[C@@H](CCC(=O)O)C(=O)N[C@@H](CCC(=O)O)C(=O)N[C@@H](CO)C(=O)N[C@@H](Cc1ccccc1)C(=O)N[C@@H](CCCNC(=N)N)C(=O)N[C@@H](CC(=O)O)C(=O)N1CCC[C@H]1C(=O)N[C@@H](C)C(=O)N[C@@H](CCC(=O)O)C(=O)N[C@H](C(=O)N[C@@H](CC(C)C)C(N)=O)C(C)C [TACC3 518-532]
IC50 [3]: 123 ± 6 µM | Kd ([4]; N restrained fit, Run 1): 30.3 µM | Kd ([4]; N restrained fit, Run 2): 34.5 µM | Kd ([4]; N unrestrained fit, Run 1): 46 µM | Kd ([4]; N unrestrained fit, Run 2): 36.8 µM | half-life at 100 µM [5]: 32 ± 4 min

Molecule: EESFRD[cis‑Pro(4-F)]AEVLGTGA [TACC3 cis-(4-F)Pro528 522-536]
IC50 (Aurora-A 122-403): > 200 µM

Molecule: EESFRD[trans‑Pro(4-F)]AEVLGTGA [TACC3 trans-(4-F)Pro528 522-536]
IC50 (Aurora-A 122-403): 60 µM

Molecule: EESFRDPAE[Nle]LGTGA [TACC3 V531nL 522-536]
IC50 (Aurora-A 122-403): > 300 µM

Molecule: EESFRDPAEV[Nle]GTGA [TACC3 L532nL 522-536]
IC50 (Aurora-A 122-403): 213 µM

Further molecules by falling IC50 (Aurora-A 122-403), results first:

IC50 (Aurora-A 122-403): 46 µM
Molecule: EES[Phe(4-Cl)]RDPAEVLGTGA [TACC3 (4-Cl)Phe525 522-536]

IC50 (Aurora-A 122-403): 34 µM
Molecule: EES[Phe(4-Br)]RDPAEVLGTGA [TACC3 (4-Br)Phe525 522-536]

IC50 (Aurora-A 122-403): ~30 µM
Molecule: LELKEESFRDPAEVL (not fully specified; L520C/R526C biphenyl constraint; Aurora-A C290A+C393A) [TACC3 L/R-Bph 518-532]
